Consider eight compounds from paper PMC10385442, “Galactoside-Based Molecule Enhanced Antimicrobial Activity through Acyl Moiety Incorporation: Synthesis and In Silico Exploration for Therapeutic Target” (Pharmaceuticals, 2023).

≈ marks a conversion by molar mass, not a printed value. Where two headings read alike, the source gives them in different places.

Assay [1] deals with S. typhi (G − ve) (AE 14612). Briefly: Disc diffusion antibacterial susceptibility. The class given is cell-based, Salmonella typhi. To be noted: S. typhi (AE 14612), triplicate, NI = No inhibition. The source says: (§1) The methodology employed to determine the antibacterial properties of the synthesized compounds (each compound dissolved in dimethyl sulfoxide 7% DMSO) involved the use of the disc diffusion approach. This was done following a previously described method with slight modifications. First, an inoculum was obtained from a bacterial colony and diluted to a concentration of 0.5 McFarland standard in sterile saltwater containing 0.9% NaCl. The suspension was then transferred to a sterile tube and allowed to settle for 5 min, after which the top homogeneous solution was transferred to another sterile tube. The concentration of the solution was adjusted to a 0.5 McFarland turbidity standard to obtain an inoculum of approximately 10^6 CFU/mL.

The test system of assay [2] is P. aeruginosa (G − ve) (ATCC 9027). Briefly: Disc diffusion antibacterial susceptibility. The class given is cell-based. To be noted: for Diameter of Inhibition Zones: P. aeruginosa (ATCC 9027), triplicate, NI = No inhibition; for antibacterial activity category: P. aeruginosa, category by zone.
Description: as §1

In assay [3] the test system is S. aureus (G + ve) (BTCC 19). Briefly: Disc diffusion antibacterial susceptibility. As to conditions: for Diameter of Inhibition Zones: S. aureus (BTCC 19), triplicate, NI = No inhibition. The class given is cell-based.
Description: as §1

The subject of assay [4] is Aspergillus flavus (ATCC 204304). Briefly: Antifungal poisoned food method, mycelial growth. To be noted: NI: no inhibition. The class given is cell-based. Here is the method: (§2) The food poisoning method with potato dextrose agar (PDA) as the culture medium was used to test the antifungal action. Twenty milliliters of 45 °C sterilized, melted potato dextrose agar medium (PDA) was placed into sterile 70-mm glass Petri plates. The “poisoned food” method was used to determine how the synthesized MDGP (1) derivatives affected the growth of the fungal mycelium.

In assay [5] the test system is Aspergillus niger (ATCC 16404). Briefly: Antifungal poisoned food method, mycelial growth. The class given is cell-based. To be noted: NI: no inhibition. The protocol: as §2
For assay [6], the system named is B. subtilis (G + ve) (ATCC 6633). The assay is described as follows: Disc diffusion antibacterial susceptibility. The class given is cell-based, Bacillus subtilis. To be noted: B. subtilis (ATCC 6633), triplicate, NI = No inhibition.
Description: as §1

For assay [7], the system named is E. coli (G − ve) (ATCC 8739). Briefly: Disc diffusion antibacterial susceptibility. The class given is cell-based, Escherichia coli. To be noted: E. coli (ATCC 8739), triplicate, NI = No inhibition.
Description: as §1

The next assay concerns B. subtilis (ATCC 6633). Briefly: MIC and MBC by broth dilution. The class given is cell-based, Bacillus subtilis. The protocol:
(§3) To determine the minimum inhibitory concentration (MIC) of the synthesized compounds against the tested bacterial strains, a dilution method was employed. The objective was to establish the lowest concentration of the compound at which approximately 90% of bacterial growth was inhibited. To this end, a bacterial suspension of 300 μL at a concentration of 0.5 McFarland standard was seeded into individual tubes of 9 mL nutrient broth, with each tube receiving 1 mL of different concentrations of the synthesized compound at twofold serial dilutions and 7% DMSO, which served as the negative control. The tubes were then kept at 37 °C for a whole night. The MIC and MBC values were determined by using the naked eye to compare the turbidity of the tube to that of a reference medium with a 0.5 McFarland value.

The test system of a further assay is E. coli (ATCC 8739). Briefly: MIC and MBC by broth dilution. The class given is cell-based, Escherichia coli. To be noted: for MBC: eradicates 99.9% of inoculum. The protocol: as §3
A further assay relates to S. typhi (AE 14612). The assay is described as follows: MIC and MBC by broth dilution. The class given is cell-based, Salmonella typhi. Here is the method:
as §3

For the next assay, the system named is B. cereus (BTCC 19). Briefly: MIC and MBC by broth dilution. The class given is cell-based. As to conditions: for MBC: eradicates 99.9% of inoculum. Here is the method: as §3
The subject of assay [8] is P. aeruginosa (ATCC 9027). Briefly: MIC and MBC by broth dilution. The class given is cell-based. Here is the method:
as §3

Setting [9] is: Bacillus subtilis, ATCC6633, eradicates 99.9% of inoculum, read-out: MBC.
The mark [10] stands for this setting: Bacillus subtilis, ATCC6633, read-out: MIC.
[11] abbreviates: Escherichia coli, ATCC8739, E. coli, read-out: MBC.
Setting [12] is: Escherichia coli, ATCC8739, E. coli, read-out: MIC.
Where [13] appears, read: S. typhi, eradicates 99.9% of inoculum.
Where [14] appears, read: Pseudomonas aeruginosa, ATCC9027, eradicates 99.9% of inoculum, read-out: MBC.
Setting [15] is: Pseudomonas aeruginosa, ATCC9027, read-out: MIC.

`CO[C@@H]1O[C@H](COC(=O)c2ccccc2Br)[C@H](O)[C@H](O)[C@H]1O` [Compound 2, Methyl 6-O-(2-bromobenzoyl)-β-D-galactopyranoside]: the “Diameter of Inhibition Zones” value in assay [1] was 11.25 ± 0.2 mm; in [2] it was “* 15.00 ± 0.1 mm”; in assay [3] it was 10.50 ± 0.2 mm. For the same compound, in assay [2], the antibacterial activity category result is listed as “high activity (high activity at 15 mm or more)”. Besides, the “% Inhibition of Fungal Mycelial Growth” value was “* 85.66 ± 0.9%” in assay [4] and “* 72.88 ± 1.0%” in assay [5].
Consider `CC[C@H]1OC(=O)[C@H](C)[C@@H](O[C@H]2C[C@@](C)(OC)[C@@H](O)[C@H](C)O2)[C@H](C)[C@@H](O[C@@H]2O[C@H](C)C[C@H](N(C)C)[C@H]2O)[C@](C)(O)C[C@@H](C)CN(C)[C@H](C)[C@@H](O)[C@]1(C)O` [Azithromycin, reference compound], for which the “Diameter of Inhibition Zones” value is reported as “** 18.25 ± 0.2 mm” in assay [6]; “** 17.25 ± 0.2 mm” in assay [7]; “** 18.0 ± 0.1 mm” in assay [1]; “** 18.5 ± 0.3 mm” in assay [2]; “** 17.50 ± 0.2 mm” in [3].
Consider `CO[C@@H]1O[C@H](COC(=O)c2ccccc2Br)[C@H](OC(=O)c2cccc(Cl)c2)[C@H](OC(=O)c2cccc(Cl)c2)[C@H]1OC(=O)c1cccc(Cl)c1` [Compound 5, Methyl 6-O-(2-bromobenzoyl)-2,3,4-tri-O-(3-chlorobenzoyl)-β-D-galactopyranoside], for which, in assay [2], the “Diameter of Inhibition Zones” value was “* 18.25 ± 0.3 mm” and the antibacterial activity category result is on record as “high activity (high activity at 15 mm or more)”. The “% Inhibition of Fungal Mycelial Growth” value in assay [4] is recorded as “* 81.97 ± 1.0%”. The “% Inhibition of Fungal Mycelial Growth” value in assay [5] worked out at 48.73 ± 1.1%.
`CCCCCCCCCCCCCC(=O)O[C@H]1[C@@H](OC(=O)CCCCCCCCCCCCC)[C@@H](COC(=O)c2ccccc2Br)O[C@@H](OC)[C@@H]1OC(=O)CCCCCCCCCCCCC` [Compound 4, Methyl 6-O-(2-bromobenzoyl)-2,3,4-tri-O-myristoyl-β-D-galactopyranoside]: the “% Inhibition of Fungal Mycelial Growth” value in assay [5] is reported as “* 71.19 ± 1.0%”.
For `CO[C@@H]1O[C@H](COC(=O)c2ccccc2Br)[C@H](OC(=O)c2ccc(C(C)(C)C)cc2)[C@H](OC(=O)c2ccc(C(C)(C)C)cc2)[C@H]1OC(=O)c1ccc(C(C)(C)C)cc1` [Compound 7, Methyl 6-O-(2-bromobenzoyl)-2,3,4-tri-O-(4-t-butylbenzoyl)-β-D-galactopyranoside], the “Diameter of Inhibition Zones” value stood at 7.75 ± 0.1 mm in assay [6], 8.50 ± 0.1 mm in [7], 9.00 ± 0.3 mm in [1] and 7.50 ± 0.3 mm in assay [2].
Turning to `CO[C@@H]1O[C@H](COC(=O)c2ccccc2Br)[C@H](OC(=O)c2ccc(Cl)cc2)[C@H](OC(=O)c2ccc(Cl)cc2)[C@H]1OC(=O)c1ccc(Cl)cc1` [Compound 6, Methyl 6-O-(2-bromobenzoyl)-2,3,4-tri-O-(4-chlorobenzoyl)-β-D-galactopyranoside], the “Diameter of Inhibition Zones” value is given as “* 12.75 ± 0.1 mm” in assay [6]; 11.25 ± 0.2 mm in assay [7]; “* 13.00 ± 0.3 mm” in assay [1]; 11.50 ± 0.1 mm in assay [2]; 11.50 ± 0.3 mm in [3]. Also, the MIC worked out at 500 µg/mL (≈ 0.631 mM) in the assay on B. subtilis (ATCC 6633); 500 µg/mL (≈ 0.631 mM) with B. subtilis (ATCC 6633) (setting [10]); 1000 µg/mL (≈ 1.26 mM) against E. coli (ATCC 8739) (E. coli); 1000 µg/mL (≈ 1.26 mM) in the assay on E. coli (ATCC 8739) (setting [12]); 2000 µg/mL (≈ 2.52 mM) in the assay on S. typhi (AE 14612) (S. typhi); 2000 µg/mL (≈ 2.52 mM) against S. typhi (AE 14612) (Salmonella enterica, TYPHI). Further, the MIC is 2000 µg/mL (≈ 2.52 mM) against B. cereus (BTCC 19); 2000 µg/mL (≈ 2.52 mM) in the assay on B. cereus (BTCC 19) (Bacillus cereus, read-out: MIC); 8000 µg/mL (≈ 10.1 mM) in [8]; 8000 µg/mL (≈ 10.1 mM) in assay [8] (setting [15]). For the same compound, the MBC in the assay with B. subtilis (ATCC 6633) (setting [9]) turned out to be 16000 µg/mL (≈ 20.2 mM); against B. subtilis (ATCC 6633) (eradicates 99.9% of inoculum) it was 16000 µg/mL (≈ 20.2 mM); in the assay on E. coli (ATCC 8739) (E. coli), 8000 µg/mL (≈ 10.1 mM); in the assay on E. coli (ATCC 8739) (setting [11]) it was 16000 µg/mL (≈ 20.2 mM); in the assay on S. typhi (AE 14612) (setting [13]) it was 8000 µg/mL (≈ 10.1 mM); against S. typhi (AE 14612) (Salmonella enterica, TYPHI) it was 8000 µg/mL (≈ 10.1 mM). For the same compound, the MBC in the assay on B. cereus (BTCC 19) (Bacillus cereus, read-out: MBC) was 8000 µg/mL (≈ 10.1 mM); with B. cereus (BTCC 19), 8000 µg/mL (≈ 10.1 mM); in assay [8] (setting [14]) it was 16000 µg/mL (≈ 20.2 mM); in assay [8] (eradicates 99.9% of inoculum) it was 16000 µg/mL (≈ 20.2 mM). Moreover, the “% Inhibition of Fungal Mycelial Growth” value in [4] is listed as “* 81.97 ± 1.2%”; in assay [5], “* 78.81 ± 1.0%”.
Consider `CCCCCCCCCCCC(=O)O[C@H]1[C@@H](OC(=O)CCCCCCCCCCC)[C@@H](COC(=O)c2ccccc2Br)O[C@@H](OC)[C@@H]1OC(=O)CCCCCCCCCCC` [Compound 3, Methyl 6-O-(2-bromobenzoyl)-2,3,4-tri-O-lauroyl-β-D-galactopyranoside], for which the “Diameter of Inhibition Zones” value is “* 13.00 ± 0.1 mm” in [6]; 11.00 ± 0.2 mm in assay [7]; “* 12.25 ± 0.1 mm” in assay [1]; 11.25 ± 0.3 mm in assay [2]; “* 15.50 ± 0.3 mm” in assay [3]. Further, the antibacterial activity category entry in assay [3] (category by zone) is reported as “high activity (high activity at 15 mm or more)”. In addition, the MIC against B. subtilis (ATCC 6633) worked out at 8000 µg/mL (≈ 8.66 mM); with B. subtilis (ATCC 6633) (setting [10]), 8000 µg/mL (≈ 8.66 mM); with E. coli (ATCC 8739) (E. coli) it was 2000 µg/mL (≈ 2.16 mM); with E. coli (ATCC 8739) (setting [12]), 2000 µg/mL (≈ 2.16 mM); in the assay on S. typhi (AE 14612) (Salmonella enterica, TYPHI), 125 µg/mL (≈ 0.135 mM); in the assay with B. cereus (BTCC 19), 8000 µg/mL (≈ 8.66 mM). The MIC with B. cereus (BTCC 19) (Bacillus cereus, read-out: MIC) came to 8000 µg/mL (≈ 8.66 mM); in [8] (setting [15]) it was 250 µg/mL (≈ 0.271 mM). For the same compound, the MBC with B. subtilis (ATCC 6633) (setting [9]) is 16000 µg/mL (≈ 17.3 mM); against B. subtilis (ATCC 6633) (eradicates 99.9% of inoculum), 16000 µg/mL (≈ 17.3 mM); in the assay with E. coli (ATCC 8739) (E. coli) it was 16000 µg/mL (≈ 17.3 mM); in the assay with E. coli (ATCC 8739) (setting [11]), 16000 µg/mL (≈ 17.3 mM); in the assay on S. typhi (AE 14612) (setting [13]), 8000 µg/mL (≈ 8.66 mM); against S. typhi (AE 14612) (Salmonella enterica, TYPHI) it was 8000 µg/mL (≈ 8.66 mM). For the same compound, the MBC in the assay with B. cereus (BTCC 19) (Bacillus cereus, read-out: MBC) came out at 8000 µg/mL (≈ 8.66 mM); against B. cereus (BTCC 19), 8000 µg/mL (≈ 8.66 mM); in assay [8] (setting [14]), 16000 µg/mL (≈ 17.3 mM); in [8] (eradicates 99.9% of inoculum), 16000 µg/mL (≈ 17.3 mM). Besides, the “% Inhibition of Fungal Mycelial Growth” value in assay [4] is recorded as “* 84.02 ± 1.3%”; in assay [5] it was “* 64.83 ± 1.1%”.
In the case of `C[C@@H]1[C@H](O)[C@@H](C)/C=C/C=C/CC/C=C/C=C/C=C/C=C/C(O[C@H]2O[C@H](C)[C@@H](O)[C@H](N)[C@@H]2O)CC2O[C@](O)(CC(O)C(O)CCC(O)CC(O)CC(O)CC(=O)O[C@H]1C)CC(O)C2C(=O)O` (stereo partly drawn) [Nystatin, reference compound], the “% Inhibition of Fungal Mycelial Growth” value in assay [4] is “** 65.2 ± 1.2%”; in assay [5], “** 66.7 ± 1.1%”.
